Test results taken from US9526762B1, “Multidomain peptides for promoting angiogenesis” (WILLIAM MARSH RICE UNIVERSITY, priority 2013, dated 2016).

T1: MMP-2 (Homo sapiens, UniProt P08253)
T1 sequence (P08253 110-660): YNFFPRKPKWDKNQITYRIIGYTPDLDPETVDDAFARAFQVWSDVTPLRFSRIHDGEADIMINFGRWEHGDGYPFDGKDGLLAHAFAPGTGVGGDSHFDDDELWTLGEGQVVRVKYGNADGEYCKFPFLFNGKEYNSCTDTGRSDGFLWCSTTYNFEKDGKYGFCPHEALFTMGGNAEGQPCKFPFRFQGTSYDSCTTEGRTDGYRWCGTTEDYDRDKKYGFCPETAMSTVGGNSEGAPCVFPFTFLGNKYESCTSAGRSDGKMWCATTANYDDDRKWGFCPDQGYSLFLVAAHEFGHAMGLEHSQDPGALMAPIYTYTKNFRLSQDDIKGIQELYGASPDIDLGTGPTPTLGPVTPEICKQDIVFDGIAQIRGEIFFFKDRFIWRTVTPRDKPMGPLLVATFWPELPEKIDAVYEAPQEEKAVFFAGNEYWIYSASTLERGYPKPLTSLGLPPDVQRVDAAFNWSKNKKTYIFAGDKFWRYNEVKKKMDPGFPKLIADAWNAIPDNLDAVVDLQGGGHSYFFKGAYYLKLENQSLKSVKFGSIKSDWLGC

T2: angiogenic peptide SLanc: K-(SL)3(RG)(SL)3-K-G-KLTWQELYQLKYKGI
T2 chain: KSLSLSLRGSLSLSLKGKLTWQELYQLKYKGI

B1: MMP-2 (protein)
chain: T1 sequence (P08253 110-660)

How the values were obtained:
[1] = system: human mesenchymal stem cells (hMSCs); test: hMSC adhesion on hydrogel scaffolds; assay type: cell-based; settings: 2000 hMSC per gel, 5 days at 37° C., nuclei counted
Protocol: SLanc, SLac, SL, and RTT hydrogels (50 μL) were cast in 16-well chamber slides (n=6). hMSC (2000 on each gel) were seeded, and compared to TCP surfaces. Cells were incubated for 5 days at 37° C. Actin filaments were stained with Alexafluor Phalloidin 488 (Life Technologies) and DAPI (Life Technologies). Cell morphology was noted and nuclei counted to quantify proliferation.

[2] = system: Wistar rats; test: Subcutaneous implants in rats, histologic and angiogenic evaluation; assay type: in vivo; settings: rat
Protocol: Female Wisar rats (225-250 g, Charles River Labs, Wilmington, Mass.) were anesthetized using isofluorane (2% for induction and 1% for maintenance), dorsal aspect shaved and sterilely prepped. Hydrogel scaffolds of each SL, SLc, SLac, SLanc or controls: Pura, VEGF (1 μg/mL) were made were loaded in syringes with 22 gage needles. 200 μL subcutaneous injections were injected in 4 different 1.5 inch spaced randomized sites on the dorsal aspect, on either side between the lower thoracic and upper lumber vertebrae. At prescribed timepoints 3 day, 1 week, 2 weeks and […] rats were euthanized using an overdose of isoflurane, CO2 asphyxiation, and bilateral thoracic puncture. The dorsal skin was removed around the entire implant, washed with PBS, and fixed in neutral buffered formalin for 24 hr prior to processing.
Tissue was processed to paraffin blocks, sectioned at 7 μm, deparraffinized and stained for cellular infiltrate using H&E. Cellular infiltrate was determined using immunostaining Mural cell staining associated with angiogenesis was determined by staining for endothelial cells: goat anti-rat CD31+ (Santa Cruz Biotechnology), mouse anti-rat vWF (ABCam); smooth muscle cells: rabbit anti-rat α-SMA+ (Dako); pericytes: mouse anti-rat Nestin+ (Millipore); hematopoitic stem cells: mouse anti-rat CD45 (Santa Cruz Biotechnology), and nucleic DAPI counterstain. Secondary antibodies used were goat anti-rabbit AF 488, donkey anti-goat AF 488, anti-goat AF 488 (Life Technologies), donkey Streptavidin AF 647 (Life Technologies), goat anti-mouse AF 647 and donkey anti-rabbit AF 647. Angiogenesis was quantified by measuring the diameter of vessels (small axis for non-circular vessels), density of vessels (vessels per unit area), presence and thickness of vessel wall (graded from 1 to 3: 1—non-contiguous vessel wall, 2: contiguous thin vessel wall, 3: contiguous multicell thick vessel wall) (n=4 separate sections, n=4 samples).
In modeled diseases such as ligated femoral artery ischemic limb wounds or myocardial infarction several host tissue responses are activated. From secretion of mediators of inflammation such as MCP-1, IL-4, IL-10, SDF-1 and GCSF to growth factors such as VEGF, FGF and EGF extrinsic factors can drastically influence performance of novel materials. As such, prior to use in a disease model, evaluation of scaffolds without concomitant influence from native immune responses was critical. 200 μL subcutaneous implants were randomly made in the dorsal aspect of Wistar rats between the cervical and lumbar vertebrae and 1-2 cm lateral to the midline. 1 w % scaffolds were prepared aseptically by crosslinking 2 w % peptide with an equal volume of HBSS, and injected via 21 gage needle below the skin. At 3 day, 1 week, 2 week and 3 week timepoints, rats were euthanized and scaffolds with surrounding tissue and skin removed. Scaffolds were trimmed, fixed in formalin, embedded in paraffin, sectioned and (immuno-) stained. […] These scaffolds seemed to have completely diffused away or degraded 3 days post-implant. […] Development of blood vessels is dependent on the stimuli the host and scaffold provides. VEGF loaded scaffolds presented 100 ng of recombinant protein (13 nM) within scaffolds. […] These cells of immune, hematopeotic and mesenchymal origin provide a niche for reconstitution of scaffolds. Coupled with recruitment and growth of endothelial feeders from existing vessels, we posit that pericytic cells enhance stability of growing vessels in a paracrine fashion providing adequate support for generation of arterioles.

[3] = system: THP-1 cells; test: Immunogenicity with THP-1 cells atop scaffolds (ELISA); assay type: cell-based; settings: ELISA at 24 hr
Protocol: 200 μL gels were cast in 24 well plates. Rat tail tendon (RTT), Puramatrix™ (Pura) and Matrigel™ were used as gel controls, and TCP with macrophages differentiated to M1 (20 ng/mL IFN-γ+LPS) and M2 (20 ng/mL IL-4) phenotype were used as cell controls. THP-1 cells in suspension were suspended in media and incubated at a concentration of 1M cells/well atop scaffolds. Media aliquots were assayed for inflammatory (IL-1β, TNF-α), and anti-inflammatory (IL-10) at 24 hr using ELISA (Biolegend, Calif.).

[4] = target: T1, MMP-2; test: In vitro degradation of SLanc with MMP-2 (MALDI-MS); assay type: biochemical; settings: in vitro incubation with MMP-2, MALDI-MS
Excerpt: Chemical moieties introduced into the peptide sequence can tailor the host response to materials. In the design of SLanc, an MMP-2 cleavage sequence was introduced into the central peptide backbone. This sequence can be cleaved specifically with MMP-2, which is secreted by a host of infiltrating cells ranging from macrophages to fibroblasts. […] Additional functionality was afforded to SLanc to enhance angiogenesis by addition of QK derived from VEGF-165.

[5] = system: HUVEC; test: Scratch wound healing assay; assay type: cell-based, human; settings: 1 μM soluble peptide, low FBS (0.5%) media, 18 hr
Protocol: HUVEC were seeded in a 12-well plate (25,000 per well) and grown to confluence (n=6). A scratch wound was made in each of the wells with a 1 mL pipet tip. Cell surfaces were then washed with HBSS. Cell culture media with 0.5% FBS and 1 μM peptides (SLanc, SLac, PBS) alone was added on top of cells, n=6. Surfaces were imaged immediately. Cells were then incubated at 37° C. for 18 h imaged again in the same location. NIH Image J was used to measure the infiltration distance by migrating HUVEC.

[6] = target: T2, angiogenic peptide SLanc: …

Molecule | hMSC adhesion to scaffold [1] | cellular infiltration of scaffold (H&E) ([2]; 200 μL subcutaneous injection, 1 w % scaffold) | fibrous capsule around implant ([2]; subcutaneous implant) | perfusion of neovessels (CD45 / vWF immunostaining) ([2]; subcutaneous implant) | time to development of angiogenic networks ([2]; subcutaneous implant) [days] | time to resorption of vessels and implants ([2]; subcutaneous implant) [weeks] | time to stable vessels ([2]; subcutaneous implant) [days] | vessels in scaffold at 3 day ([2]; subcutaneous implant, 3 day) | vessel maturity by immunostaining at 7 day and 2 weeks ([2]; subcutaneous implant, 7 day and 2 weeks) | hemangiomas or hemorrhaging ([2]; subcutaneous implant, up to 3 weeks) | macro-scale vessels visible upon explant ([2]; subcutaneous implant, compared to SLc or SLc+VEGF scaffolds) | IL-1β secretion by THP-1 cells [3] | TNF-α secretion by THP-1 cells [3] | degradation by MMP-2 [4] | migration of HUVEC into scratch wound [5] | enzymatic cleavage of the peptide, MALDI mass spectrometry of fragments [6]
Ac-KSLSLSLRGSLSLSLKGKLTWQELYQLKYKGI-NH2 [SLanc, K-(SL)3(RG)(SL)3-K-G-KLTWQELYQLKYKGI] | increased adhesion to SLanc over non-functionalized scaffolds | significantly greater cellular population | lack of a fibrous capsule | CD45+ hematopoietic cells were noted within vWF+ vessels suggesting patent perfused mature neovessels | ≤ 3 | ≤ 3 | ≤ 7 | small nascent vessels | mature Nestin+, α-SMA+, and CD31+ cells | without development of hemangiomas or hemorrhaging | visible macro-scale vessels | significantly lower than LPS activated cells, with levels similar to commercially available scaffolds (Puramatrix™ and Matrigel™) | significantly lower than LPS activated cells, with levels similar to commercially available scaffolds (Puramatrix™ and Matrigel™) | yields a variety of peptide fragments around the cleavage site | significantly higher proliferation than TCP | 
K-(SL)3-(RG)-(SL)3-K-(GRGDS) (KSLSLSLRGSLSLSLKGRGDS) [SLac, adhesion and cleavage peptide] |  |  |  |  |  |  |  |  |  |  |  |  |  |  | significantly higher proliferation than TCP | 
B1 |  |  |  |  |  |  |  |  |  |  |  |  |  |  |  | In vitro demonstration of physiological degradation of SLanc with the addition of MMP-2, yields a variety of peptide fragments around the cleavage site
